Laboratory results: EPA's ToxValDB 9.5
Values joined by “and” are separate entries in the source; they are usually repeats but may differ in a detail not shown here. Equal values may be shown once.

Legend:
Rattus norvegicus [1] = details: for LD50 / LC50: acute
Oryctolagus sp. [2] = assay: LD0; higher = less toxic; details: acute
Rattus norvegicus [3] = details: repeat dose other; oral
Rattus norvegicus [4] = details: chronic, M
Homo sapiens [5] = details: clinical, inhalation, M/F; for LOAEL: neurological
Rattus norvegicus [6] = details: for NOAEL: M/F
Mus musculus [7] = details: repeat dose other; oral
Mus musculus [8] = details: oral, CD1
Mus musculus [9] = details: oral
Mus musculus [10] = details: subchronic, oral, M/F
Mus musculus [11] = details: oral; for NOAEL: M/F
Oryctolagus sp. [12] = details: for LD50: acute, dermal; for NOAEL: duration: 13 days, oral, gavage
Rattus norvegicus [13] = assay: LD0; higher = less toxic; details: acute; oral; gavage
Rattus norvegicus [14] = details: oral, gavage
Homo sapiens [15] = details: clinical, oral, M/F
Gallus sp. = details: repeat dose other; oral
Rattus norvegicus [16] = details: chronic, Liver: Toxicity
Canidae = details: chronic; duration: 2 years; oral; diet; M/F; Dog Other; reduced body weight gain, and increased liver and kidney weight
Rattus norvegicus [17] = details: uterotrophic; duration: 3 days; injection; subcutaneous; Active
Homo sapiens [18] = details: clinical, oral
Anas platyrhynchos = details: oral
[19] = short-term, duration: 28 days, oral, gavage, Sprague-Dawley
[20] = gavage, clinical signs (lethargy, prostration, and ataxia and hematological changes
[21] = short-term, duration: 4 weeks, oral, diet, Sprague-Dawley
[22] = nephropathy, increased liver weight, hematological alterations, and clinical effects
[23] = short-term, duration: 28 days, M, Sprague-Dawley, Functional Observational Battery: No urination (week1) + Body Weight Changes: decrease + Food Consumption: decrease + Urinalysis: Volume …
[24] = radioactive iodide uptake inhibition (raiu) in the thyroid

NC1CCCCC1N (stereo not drawn) [1,2-Cyclohexanediamine]
LD50 (Rattus norvegicus [1]; oral, gavage, Sprague-Dawley): 1100 mg
LOAEL (Rattus norvegicus [1]; [19]): 250 mg/kg-day
NOAEL (Rattus norvegicus [1]; [19]): 100 mg/kg-day
NOAEL (Rattus norvegicus [1]; subchronic, duration: 13 weeks, oral, gavage, Crj:CD): 125 mg/kg-day
LD0 (Oryctolagus sp. [2]; dermal, New Zealand): 7500 mg/kg

C1COCCO1 [1,4-Dioxane]
LOAEL (Rattus norvegicus [3]): 1 mg/kg-day
NOAEL (Rattus norvegicus [3]): 0.5 mg/kg-day
LOAEL (Rattus norvegicus [4]; inhalation, atrophy and respiratory metaplasia of the olfactory epithelium): 180 mg/m3
NOAEL (Rattus norvegicus [4]; oral, liver and kidney toxicity): 9.6 mg/kg-day
NOAEL (Homo sapiens [5]; duration: 2 hours, ocular): 72.1 mg/m3
LOAEL (Rattus norvegicus [6]; chronic, duration: 104 weeks, inhalation, whole body, M, Fischer 344, respiratory): 180 mg/m3
NOAEL (Rattus norvegicus [6]; chronic, duration: 716 days, oral, drinking water, Sherman Wistar, hepatic): 9.6 mg/kg-day
NOAEL (Rattus norvegicus [6]; developmental, duration: 9 days, oral, gavage, Sprague-Dawley, developmental): 516 mg/kg-day
NOAEL (Rattus norvegicus [6]; subchronic, duration: 13 weeks, oral, drinking water, Fischer 344, hepatic): 52 mg/kg-day

Cc1ccccc1 [1-Methylbenzene]
LOAEL (Mus musculus [7]): 260 mg/kg-day
NOAEL (Mus musculus [7]): 26 mg/kg-day
LOAEL (Homo sapiens [5]; duration: 20 minutes): 56.5 mg/m3
NOAEL (Mus musculus [8]; short-term, duration: 28 days, drinking water, M, immunological): 22 mg/kg-day
LOAEL (Rattus norvegicus [6]; acute, duration: 1 days, oral, gavage, M, Long-Evans, neurological): 250 mg/kg-day

Cc1ccc(O)c(C)c1 [2,4-Dimethylphenol]
LC50 (Mus musculus [9]; acute): 809 mg/kg
NOAEL (Mus musculus [9]; subchronic, duration: 90 days, gavage, F): 50 mg/kg-day
LC50 (Rattus norvegicus [1]; oral): 2300 mg/kg
LOAEL (Mus musculus [10]; [20]): 250 mg/kg-day
NOAEL (Mus musculus [10]; [20]): 50 mg/kg-day
NOAEL (Mus musculus [11]; subchronic, duration: 90 days, gavage, Crl:CD-1(ICR)BR-VAF+, Whole Body Effects): 50 mg/kg-day

CCCCC(CC)COP(=O)(O)O (stereo not drawn) [2-Ethylhexyl dihydrogen phosphate]
LD50 (Oryctolagus sp. [12]; New Zealand): > 4640 mg/kg
LD50 (Rattus norvegicus [1]; oral, gavage, Sprague-Dawley): 4100 mg/kg and 2710 mg/kg
LD0 (Oryctolagus sp. [2]; dermal, New Zealand): 11300 mg/kg
LD0 (Rattus norvegicus [13]): 3640 mg/kg

S=c1[nH]c2ccccc2s1 [2-Mercaptobenzothiazole]
LD50 (Mus musculus [9]; acute): 2000 mg/kg
LD50 (Oryctolagus sp. [12]): > 7940 mg/kg
LD50 (Oryctolagus sp. [12]; New Zealand): > 7940 mg/kg
NOAEL (Oryctolagus sp. [12]; developmental, New Zealand): 300 mg/kg-day
NOAEL (Oryctolagus sp. [12]; reproduction developmental, F, New Zealand): 300 mg/kg-day and < 150 mg/kg-day
LC50 (Rattus norvegicus [1]; inhalation): > 1.27 µg/mL
LD50 (Rattus norvegicus [1]; oral, Sprague-Dawley): 2830 mg/kg and 3800 mg/kg
NOAEL (Rattus norvegicus [1]; developmental, duration: 10 days, oral, gavage, Sprague-Dawley): 1800 mg/kg-day and 2200 mg/kg-day
NOAEL (Rattus norvegicus [1]; reproduction developmental, duration: 10 days, oral, gavage, F, Sprague-Dawley): 300 mg/kg-day
NOAEL (Rattus norvegicus [1]; reproduction developmental, oral, diet, Crl:CD COBS BR): 2500 ppm
NOAEL (Rattus norvegicus [1]; reproduction developmental, oral, diet, Sprague-Dawley, generation: F0): < 5000 ppm
NOAEL (Rattus norvegicus [1]; reproduction developmental, oral, diet, Sprague-Dawley, generation: F1): < 5000 ppm
LOAEL (Rattus norvegicus [1]; [21]): 1070 mg/kg-day
NOAEL (Rattus norvegicus [1]; [21]): 714 mg/kg-day
NOAEL (Rattus norvegicus [1]; subchronic, duration: 13 weeks, oral, gavage, Fischer 344): 375 mg/kg-day
NOEL (Rattus norvegicus [14]; subchronic, duration: 13 weeks, M/F, Fischer 344, Absolute Organ Weight: Liver increase + Relative Organ Weight: Liver increase): < 188 mg/kg-day
NOEL (Rattus norvegicus [14]; subchronic, M, Sprague-Dawley, Clinical Observation: Locomotor activity with ptosis decrease, Salivation + Body Weight Changes: Suppression of body weight gain(tendency…): < 40 mg/kg-day
LD0 (Oryctolagus sp. [2]; oral): ≥ 7500 mg/kg and ≤ 8750 mg/kg
LD0 (Oryctolagus sp. [2]; oral, New Zealand): ≥ 7500 mg/kg and ≤ 8750 mg/kg

CNC(=O)O/N=C/C(C)(C)SC [Aldicarb]
LOAEL (Homo sapiens [15]; cholinesterase inhibition): 0.025 mg/kg-day
NOAEL (Homo sapiens [15]; cholinesterase inhibition): 0.01 mg/kg-day

[Cl][Al]([Cl])[Cl] [Aluminum chloride]
LOAEL (Gallus sp.): 44.5 mg/kg-day
LOAEL (Mus musculus [7]): 19.3 mg/kg-day
NOAEL (Mus musculus [7]): 1.93 mg/kg-day

[Ba+2].[OH-].[OH-] [Barium hydroxide]
LOAEL (Gallus sp.): 41.7 mg/kg-day
NOAEL (Gallus sp.): 20.8 mg/kg-day
LOAEL (Rattus norvegicus [3]): 19.8 mg/kg-day

OC(O)C(Cl)(Cl)Cl [Chloral hydrate]
LOAEL (Homo sapiens [15]; central nervous system depression and gi irritation in humans): 10.7 mg/kg-day

[Cu+].[Cu+].[O-2] [Cuprous oxide]
LOAEL (Gallus sp.): 61.7 mg/kg-day
NOAEL (Gallus sp.): 47 mg/kg-day

ClCCl [Dichloromethane]
LOAEL (Rattus norvegicus [3]): 50 mg/kg-day
NOAEL (Rattus norvegicus [3]): 5.85 mg/kg-day
LOAEL (Homo sapiens [5]; duration: 1 days, chamber): 1040 mg/m3
NOAEL (Rattus norvegicus [6]; chronic, duration: 2 years, inhalation, Sprague-Dawley, hepatic): 174 mg/m3
LOAEL (Rattus norvegicus [6]; chronic, duration: 14 weeks, inhalation, unknown, hepatic): 86.8 mg/m3
NOAEL (Rattus norvegicus [6]; chronic, duration: 104 weeks, oral, drinking water, Fischer-344, hepatic): 6 mg/kg-day
NOAEL (Rattus norvegicus [16]; duration: 2 years, inhalation, intermittent): 695 mg/m3
NOAEL (Rattus norvegicus [16]; duration: 24 months, oral, drinking water): 5.85 mg/kg-day

c1ccc(Nc2ccccc2)cc1 [Diphenylamine]
NOEL (Rattus norvegicus [14]; short-term, duration: 28 days, M/F, Fischer 344, Clinical Observation: Dark brown colored bedding + Body Weight Changes: Weight gain decrease + Food Consumption: decrease + Hematology: RBC …): 111 mg/kg-day
LEL (Canidae): 25 mg/kg-day
NOEL (Canidae): 2.5 mg/kg-day
NOAEL (Mus musculus [11]; subchronic, duration: 90 days, diet, CD1): 2.1 mg/kg-day

c1ccc2c(c1)-c1cccc3cccc-2c13 [Fluoranthene]
LOAEL (Mus musculus [10]; [22]): 250 mg/kg-day
NOAEL (Mus musculus [10]; [22]): 125 mg/kg-day
LOAEL (Mus musculus [8]; subchronic, duration: 90 days, gavage, M/F, hepatic): 125 mg/kg-day
LEL (Rattus norvegicus [17]): 10 mg/kg-day

CCC[C@@H]1C[C@@H](C(=O)N[C@@H]([C@H]2O[C@H](SC)[C@H](O)[C@@H](O)[C@H]2O)[C@@H](C)O)N(C)C1 [Lincomycin]
NOEL (Homo sapiens [18]; duration: 12 months, Change in gut flora): 2.5 mg/kg-day

CN(C)C=O [N,N-Dimethylformamide]
NOAEL (Mus musculus [11]; chronic, duration: 119 days, diet, CD1, hepatic): 96 mg/kg-day

CN(C)N=O [N-Nitrosodimethylamine]
NOAEL (Rattus norvegicus [14]; [23]): < 0.8 mg/kg-day
NOEL (Rattus norvegicus [14]; [23]): < 0.8 mg/kg-day
LOAEL (Mus musculus [11]; developmental, duration: 100 days, drinking water, F, CD1, developmental): 0.025 mg/kg-day

[O-][Cl+3]([O-])([O-])[O-] [Perchlorate]
LOEL (Homo sapiens [15]; [24]): 0.02 mg/kg-day
NOEL (Homo sapiens [15]; [24]): 0.007 mg/kg-day

CC[C@@H]1CCN[C@H](C(=O)N[C@@H]([C@H]2O[C@H](SC)[C@H](O)[C@@H](O)[C@H]2O)[C@H](C)Cl)C1 [Pirlimycin]
NOEL (Homo sapiens [18]; capsule, M, Clostridium difficile in stool): 50 mg

CC(CCc1ccc(O)cc1)NCC(O)c1ccc(O)cc1.Cl (stereo not drawn) [Ractopamine hydrochloride]
NOEL (Homo sapiens [18]; M, Changes in cardiovascular function variables): 0.067 mg/kg-day

O=[As][O-].[Na+] [Sodium arsenite]
LOAEL (Anas platyrhynchos): 12.8 mg/kg-day
NOAEL (Anas platyrhynchos): 5.14 mg/kg-day

CN(C)[C@@H]1C(=O)C(C(N)=O)=C(O)[C@@]2(O)C(=O)C3=C(O)c4c(O)cccc4[C@@](C)(O)[C@H]3C[C@@H]12 [Tetracycline]
NOEL (Homo sapiens [18]; Selection of resistant bacterial strains): 0.033 mg/kg-day

COP(=O)(OC)C(O)C(Cl)(Cl)Cl (stereo not drawn) [Trichlorfon]
LOEL (Homo sapiens [18]; duration: 10 weeks, Inhibition of acetylcholinesterase activity): 0.2 mg/kg-day
